# From patent US20180258404A1, “METHODS OF GENERATING NEPHRONS FROM HUMAN PLURIPOTENT STEM CELLS” (THE BRIGHAM AND WOMEN'S HOSPITAL, INC., priority 2015, published 2018)
# “Also recorded” adds a separate entry of the source.
# B1: activin: growth factor used to induce posterior intermediate mesoderm (protein, UniProt P08476 311-426, looked up)
# Inhibin beta A chain: GLECDGKVNICCKKQFFVSFKDIGWNDWIIAPSGYHANYCEGECPSHIAGTSGSSLSFHSTVINHYRMRGHSPFANLKSCCVPTKLRPMSMLYYDDGQNIIKKDIQNMIVEECGCS
# modifications: Inhibin beta A chain
# notes: growth factor used to induce posterior intermediate mesoderm
# B2: BMP7: growth factor tested in 3D culture screening (protein, UniProt P18075 293-431, looked up)
# Bone morphogenetic protein 7: STGSKQRSQNRSKTPKNQEALRMANVAENSSSDQRQACKKHELYVSFRDLGWQDWIIAPEGYAAYYCEGECAFPLNSYMNATNHAIVQTLVHFINPETVPKPCCAPTQLNAISVLYFDDSSNVILKKYRNMVVRACGCH
# B3: mouse Wnt9b: growth factor tested in 3D culture screening (protein, UniProt O35468 24-359, looked up)
# Protein Wnt-9b: AAYFGLTGREVLTPFPGLGTAAAPAQAGAHLKQCDLLKLSRRQKQLCRREPGLAETLRDAAHLGLLECQFQFRQERWNCSLEGRTGLLQRGFKETAFLYAVSAAALTHALARACSAGRMERCTCDDSPGLESRQAWQWGVCGDNLKYSTKFLSNFLGPKRGSKDLRARADAHNTHVGIKAVKSGLRTTCKCHGVSGSCAVRTCWKQLSPFRETGQVLKLRYDTAVKVSSATNEALGRLELWAPAKPGGPAKGLAPRPGDLVYMEDSPSFCRPSKYSPGTAGRVCSRDSSCSSLCCGRGYDTQSRMVVFSCHCQVQWCCYVECQQCAQQELVYTCKR
# B4: WNT4: growth factor tested in 3D culture screening (protein, UniProt P56705 23-351, looked up)
# Protein Wnt-4: SNWLYLAKLSSVGSISEEETCEKLKGLIQRQVQMCKRNLEVMDSVRRGAQLAIEECQYQFRNRRWNCSTLDSLPVFGKVVTQGTREAAFVYAISSAGVAFAVTRACSSGELEKCGCDRTVHGVSPQGFQWSGCSDNIAYGVAFSQSFVDVRERSKGASSSRALMNLHNNEAGRKAILTHMRVECKCHGVSGSCEVKTCWRAVPPFRQVGHALKEKFDGATEVEPRRVGSSRALVPRNAQFKPHTDEDLVYLEPSPDFCEQDMRSGVLGTRGRTCNKTSKAIDGCELLCCGRGFHTAQVELAERCSCKFHWCCFVKCRQCQRLVELHTCR
# B5: BMP4: growth factor; posteriorizes the primitive streak (protein, UniProt P12644 293-408, looked up)
# Bone morphogenetic protein 4: SPKHHSQRARKKNKNCRRHSLYVDFSDVGWNDWIVAPPGYQAFYCHGDCPFPLADHLNSTNHAIVQTLVNSVNSSIPKACCVPTELSAISMLYLDEYDKVVLKNYQEMVVEGCGCR
# How the values were obtained:
# Format in all cases: cell-based, human
# [1] = tested on: kidney organoids; assay: Aristolochic acid toxicity and nephroprotection model in kidney organoids; details: for PGC-1a expression (real-time quantitative PCR): AA alone or AA with cilostamide
# Source text: FIG. 34. […] Representative immunohistochemistry of aristolochic acid (AA) and tenofovir (TFV) treatments. Day 32 Kg-derived organoids. Al/AA treatments for 24H, while all TFV treatments for 48 H. Scale bars, 50 gm. Quantification determined as a percentage of DAP/+ cells. n=3, total DAP/+>1000 for each treatment. (*) indicates p-value<0.05.
# FIG. 35. OAT1 inhibition by probenecid protects proximal tubules against AA toxicity. Representative immunohistochemistry of probenecid treatments with AA 2.5 gg/mL. Day 38 Kg-derived organoids. All treatments for 48 H. Scale bars, 50 um. Quantification determined as a percentage of DAPI+ cells. n=3, total DAPI+>1000 for each treatment. (*) indicates p-value<0.05.
# FIG. 36. […] Representative immunohistochemistry of cilostamide and sildenafi/treatments with AA 2.5 gg/mL. Day 38 H9-derived organoids. All treatments for 48 H. Scale bars, 50 gm. Quantification determined as a percentage of DAPI+ cells. n=3, total DAPI+>1000 for each treatment. (*) indicates p-value<0.05.
# FIG. 37. Real-time quantitative PCR mRNA was extracted from organoid samples and confirmed with Nanodrop. cDNA library Was generated by reverse transcription. AQP-I is prominently expressed on proximal tubules. PGC1-a is the master regulator of mitochondrial biogenesis.
# [2] = tested on: NPCs in 3D culture; assay: Growth factor and small molecule screening in 3D culture (LTL+ tubules); details: added in 3D culture from day 10
# Protocol: FIG. 10. Spontaneous differentiation of SIX2+ cells into nephrons and growth factor screening in 3D culture. (a) Staining with PAX8 and LHX1 in hESCs on day 10 of the differentiation. hESCs were differentiated with CHIR 8 µM for 4 days, activn 10 ng/ml for 3 days, and FGF9 10 ng/ml for 3 days. […] Scale bar: 50 μm. (b) Brighfield imaging for hESCs on day 10 and 21 of the differentiation. FGF9 was withdrawn on day 10, and cells were cultured in the basic medium by day 21. Scale bars: 50 μm. (c) Brightfield and immunocytochemistry for LTL and NPHS1 in hESCs on day 28 of the differentiation. Scale bar: 50 μm. (d) The protocol for growth factor screening. Cells were replated to 3D culture on day 10, and the listed growth factors and small molecules were tested. (e) The number of LTL+ tubules in the organoids. […] (f) Brightfield imaging of 3D co-culture with an ureteric bud cell sphere. Scale bar: 100 μm. (g) Whole-mountstaining for LTL in the organoids on day 16. Scale bar: 100 μm. (h) Immunohistochemistry of the organoids on day 16. Scale bars: 50 μm. LTL: lotus tetragonolobus lectin. NPHS1: Nephrin.
# To test whether the formation of epithelial structures could be facilitated by 3D culture conditions, on day 10, at the time of FGF9 withdrawal, the Inventors replated NPCs in ultra-low-attachment, round-bottom 96-well plates and cultured them for 1 week. NPCs formed 3D spherical aggregates, one per 96-well, in suspension culture.
# [3] = tested on: H9 hESCs; assay: Differentiation of hESCs into posterior intermediate mesoderm
# Protocol: (§1) hPSCs grown on Geltrex were washed once with PBS (Life Technologies, #10010-049) and dissociated into single cells with Accutase ([…] Technologies, #07920). Cells were then plated at a density of 2-2.4×10^4 (H9) or 1-1.4×10^4 (HDF, 2C) cells/cm^2 onto 24-well tissue culture plates (TPP, #92024) coated with 1% Geltrex in ReproFF2 supplemented with the ROCK inhibitor Y27632 (10 μM) (TOCRIS, #1254) and FGF2 (10 ng/ml). After 72 hours, cells (50% confluent) were briefly washed in PBS and then cultured in basic differentiation medium consisting of Advanced RPMI 1640 (Life Technologies, #12633-020) and 1X L-GlutaMAX (Life Technologies, #35050-061) supplemented with CHIR99021 (8-10 μM) (TOCRIS, #4423) for 4 days to induce late primitive streak cells Noggin (5 ng/ml) was also used for hiPSC differentiation in addition to CHIR (10 μM). To induce posterior intermediate mesoderm, cells were then cultured in Advanced RPMI+1X L-GlutaMAX+activin (10 ng/mL) (R&D, #338-AC-050) for 3 days. For induction of nephron progenitor cells, the media was then changed to Advanced RPMI+1X L-GlutaMAX+FGF9 (10 ng/ml) (R&D, #273-F9-025/CF) for 7 days. CHIR (3 μM) was added to the media from day 9 to 11 of differentiation to induce renal vesicles. On day 14, cells were switched to the basic differentiation medium and cultured for an additional 7 to 14 days (total of 21 to 28 days). The medium was replaced every 2 or 3 days. A variety of growth factors and small molecules were tested for differentiation.
# PAX2 and LHX1 were not expressed (FIG. 1f), confirming that activin treatment of late primitive streak cells produced posterior and not anterior IM cells.
# As the posterior primitive streak is induced by a BMP4 signal gradient, the Inventors hypothesized that CHIR treatment of HDF-α hiPSCs might induce endogenous BMP4 production that promotes differentiation into the posterior primitive streak and subsequently lateral plate mesoderm. […] Optimizing the protocol for individual cell lines based on their endogenous BMP4 production maximized the efficiency of generating posterior IM.
# [4] = tested on: HDF-α hiPSCs; assay: Differentiation of hiPSCs into posterior intermediate mesoderm; details: activin after CHIR plus noggin 5 ng/mL in the first step
# Protocol: as §1, with “The medium was replaced every 2 or 3 days. A variety of growth factors and small molecules were tested for differentiation.” left out
molecule,measurement,setting,value
"COc1cccc2c1cc([N+](=O)[O-])c1c(C(=O)O)cc3c(c12)OCO3 [AA, aristolochic acid]",PGC-1a expression (real-time quantitative PCR),[1],downregulated
same,kidney damage biomarkers by immunohistochemistry,"[1]; AA treatments for 24H, day 32 organoids",dose-dependent upregulation of kidney damage biomarkers
"CCCN(CCC)S(=O)(=O)c1ccc(C(=O)O)cc1 [Probenecid, probenecid]",nephroprotection against AA,"[1]; Probenecid 10 LIM with AA 2.5 gg/mL, 48 H, day 38 organoids",provided strongest nephroprotection against AA
same,damage to organoids,"[1]; probenecid alone, 48 H, day 38 organoids",causes no damage to organoids
IGF-1: growth factor tested in 3D culture screening,number of LTL+ tubules in the organoids,[2],did not significantly increase the number of LTL+ tubules
O=C(Nc1cccc2cccnc12)c1ccc(N2C(=O)[C@@H]3[C@H](C2=O)[C@@H]2C=C[C@H]3C2)cc1 [IWR-1],number of LTL+ tubules in the organoids,[2],did not significantly increase the number of LTL+ tubules
CN(C(=O)CCCOc1ccc2[nH]c(=O)ccc2c1)C1CCCCC1 [cilostamide],PGC-1a expression (real-time quantitative PCR),[1],protected
same,"nephroprotection against AA (real-time quantitative PCR, AQP-I)",[1]; cilostamide with AA,"dose-dependent nephroprotection against AA, significant preservation of proximal tubules"
same,mitochondrial biogenesis and protection,"[1]; cilostamide with AA 2.5 gg/mL, 48 H, day 38 H9-derived organoids",increases mitochondrial biogenesis and protection in AA-toxicity model
HGF: growth factor tested in 3D culture screening,number of LTL+ tubules in the organoids,[2],did not significantly increase the number of LTL+ tubules; also recorded: showed a tendency to increase LTL+ tubules
JAG1: growth factor tested in 3D culture screening,number of LTL+ tubules in the organoids,[2],did not significantly increase the number of LTL+ tubules
NC(=O)c1ccc(-c2nc(-c3ccc4c(c3)OCO4)c(-c3ccccn3)[nH]2)cc1 [SB431542],number of LTL+ tubules in the organoids,[2],did not significantly increase the number of LTL+ tubules
B1,efficiency of induction of WT1+HOXD11+ cells,"[3]; activin 10 ng/mL between days 4 and 7, after CHIR 8 μM for 4 days",~90%
same,efficiency of generation of WT1+HOXD11+ posterior IM cells,[4],80-90%
B2,number of LTL+ tubules in the organoids,[2],did not significantly increase the number of LTL+ tubules
B3,number of LTL+ tubules in the organoids,[2],did not significantly increase the number of LTL+ tubules
B4,number of LTL+ tubules in the organoids,[2],did not significantly increase the number of LTL+ tubules
B5,FOXF1 expression at day 4,[3]; BMP4 1 ng/mL added to CHIR,resulted in FOXF1 expression at day 4
same,WT1 expression on day 7,"[3]; added to CHIR in the first step, hESCs",suppression of WT1 expression on day 7
